Assay results as given in patent US20210093730A1, “BIOMARKERS FOR ANTIBODY-DRUG CONJUGATE MONOTHERAPY OR COMBINATION THERAPY” (Immunomedics, Inc., priority 2019, published 2021).
“And” between values parts separate entries of the source, which are not always exact repeats. Identical values can stand only once. Like-named read-outs stand apart in the source and are kept apart here.

Experiments:
[1] = test system: metastatic small-cell lung cancer; details: cited from earlier work
[2] = test system: metastatic urothelial cancer; experiment: Further study of sacituzumab govitecan in metastatic urothelial cancer (mUC), 32 pts enrolled; assay type: in vivo, human
Source text: Response-evaluable pts received ≥2 doses, and had ≥1 post-baseline response assessment.

[3] = test system: metastatic small-cell lung cancer
Source text: Previous therapy had to be completed at least 4 weeks before enrollment.
Treatment was continued until disease progression, initiation of alternative anticancer therapy, unacceptable toxicity, or withdrawal of consent.
The primary endpoint was the proportion of patients with a confirmed objective response, assessed approximately every 8 weeks until disease progression, by each institution's radiology group or a contracted local radiology service. […] Partial (PR) or complete responses (CR) required confirmation within 4 to 6 weeks after the initial response. Clinical benefit rate (CBR) is defined as those patients with an objective response plus stable disease (SD)≥4 months. Survival was monitored every 3 months until death or withdrawal of consent.
Safety evaluations were conducted during scheduled visits or more frequently if warranted.
The frequency and severity of adverse events (AEs) were defined by MedDRA Preferred Term and System Organ Class (SOC) version 10, with severity assessed by NCI-CTCAE v4.03.
The protocol provided that objective response rates (ORR) were determined for patients who received ≥2 doses (1 cycle) and had their initial 8-week CT assessment. Duration of response is defined in accordance to RECIST 1.1 criteria, with those having an objective response marked from time of the first evidence of response until progression, while stable disease duration is marked from the start of treatment until progression. PFS and OS were defined from the start of treatment until an objective assessment of progression was determined (PFS) or death (OS).

[4] = SG given as >3 line, no prior topotecan/irinotecan (N = 9)
[5] = SG given as >3 line, prior topotecan/irinotecan (N = 15)
[6] = patients resistant (N = 19) to 1st line
[7] = patients sensitive (N = 24) to 1st line

**Q.** For sacituzumab govitecan, which ORR ([1]; 53 mSCLC patients (Gray et al., 2017)) is on record?
**A.** The ORR was 14%.

**Q.** And the “median OS” value ([1]; Gray et al., 2017)?
**A.** Its value is 7.5 months.

**Q.** And the “median PFS” value ([1]; Gray et al., 2017)?
**A.** Its value is 3.7 months.

**Q.** What about the median response duration ([1]; Gray et al., 2017) of the same substance?
**A.** The median response duration was 5.7 months.

**Q.** What about the “patients with tumor shrinkage from baseline” value ([1]; Gray et al., 2017) of the same substance?
**A.** The value was “Sixty”.

**Q.** And the “ORR, pts with 1 line of prior chemotherapy” value ([2]; 7/13)?
**A.** Its value is 53.8%.

**Q.** What about the ORR ([2]; 25 assessable pts, 8 or 10 mg/kg days 1 and 8 every 21 days) of the same substance?
**A.** The ORR was 36%.

**Q.** And the “grade 3 hypophosphatemia” value ([2]; 25 pts)?
**A.** The value was 8%.

**Q.** And the “grade 4 neutropenia” value ([2]; 25 pts)?
**A.** Its value is 16%.

**Q.** What about the “duration of response for CR/PR pts” value ([2]; 95% CI 4.1-12.9) of the same substance?
**A.** Its value is 5.1 mos.

**Q.** And the “median PFS” value ([2]; all patients, 95% CI 4.9-10.7)?
**A.** The value was 7.2 mos.

**Q.** What about the “ORR, pts with 2 to 5 prior therapy lines” value ([2]; in vivo) of the same substance?
**A.** Its value is 16.7%.

**Q.** And the “duration of grade 4 neutropenia” value ([2]; in vivo)?
**A.** The value was < 7 days.

**Q.** What about the “PR among pts with progression after prior IO” value ([2]; of 4 pts) of the same substance?
**A.** Its value is 1 patients.

**Q.** And the “complete responses (CR)” value ([2]; of 25 pts)?
**A.** Its value is 1 patients.

**Q.** And the “partial responses (PR)” value ([2]; of 25 pts)?
**A.** Its value is 8 patients.

**Q.** And the “pts with stable disease >4 mos” value ([2]; of the SD pts)?
**A.** Its value is 10/11.

**Q.** And the “confirmed PR” value ([3]; 19 patients resistant to first-line platinum)?
**A.** Its value is 16%.

**Q.** What about the “confirmed PR” value ([3]; 24 patients sensitive to first-line platinum) of the same substance?
**A.** Its value is 17%.

**Q.** What about the “PD, %” value ([3]; 43 assessable patients) of the same substance?
**A.** The value was “(35%)”.

**Q.** What about the “stable disease including unconfirmed PR” value ([3]; 43 assessable patients (21 patients)) of the same substance?
**A.** Its value is 49%.

**Q.** And the treatment-related deaths ([3]; 53 patients)?
**A.** The treatment-related deaths was “No treatment-related deaths were observed”.

**Q.** What about the “OS, seven confirmed PR patients” value ([3]; 95% CI 6.2, 20.9) of the same substance?
**A.** The value was 9.2 months.

**Q.** And the “OS, ten patients with SD >=4 months” value ([3]; 95% CI 7.5, 22.4)?
**A.** The value was 8.3 months.

**Q.** And the “median PFS, confirmed PR group” value ([3]; 95% CI 7.6, 21.9)?
**A.** Its value is 7.9 months.

**Q.** And the “Duration of confirmed objective response, median” value ([3]; Kaplan-Meier, 95% CI 3.6, 19.9)?
**A.** Its value is 5.7 months.

**Q.** What about the “Clinical benefit rate (PR + SD >= 4 months), %” value ([3]; SG as >=3 line (N = 24)) of the same substance?
**A.** Its value is “(38%)”.

**Q.** What about the OS median ([3]; SG as >=3 line (N = 24)) of the same substance?
**A.** Its OS median is 7.0 months.

**Q.** What about the PFS median ([3]; SG as >=3 line (N = 24)) of the same substance?
**A.** The PFS median was 3.7 months.

**Q.** What about the “Clinical benefit rate (PR + SD >= 4 months), %” value ([3]; SG as second line (N = 19)) of the same substance?
**A.** Its value is “(37%)”.

**Q.** And the OS median ([3]; SG as second line (N = 19))?
**A.** The OS median was 8.1 months.

**Q.** And the PFS median ([3]; SG as second line (N = 19))?
**A.** The PFS median was 3.6 months.

**Q.** What about the “Clinical benefit rate (PR + SD >= 4 months), %” value [3, 4] of the same substance?
**A.** The value was “(33%)”.

**Q.** And the OS median [3, 4]?
**A.** The OS median was 5.5 months.

**Q.** What about the PFS median [3, 4] of the same substance?
**A.** The PFS median was 3.7 months.

**Q.** And the “Clinical benefit rate (PR + SD >= 4 months), %” value [3, 5]?
**A.** Its value is “(40%)”.

**Q.** What about the OS median [3, 5] of the same substance?
**A.** The OS median was 8.8 months.

**Q.** What about the PFS median [3, 5] of the same substance?
**A.** Its PFS median is 3.8 months and 3.6 months.

**Q.** What about the “grade 3 or 4 anemia” value ([3]; human, in vivo) of the same substance?
**A.** Its value is 8%.

**Q.** What about the “grade 3 or 4 diarrhea” value ([3]; human, in vivo) of the same substance?
**A.** Its value is 9%.

**Q.** And the “grade 3 or 4 fatigue” value ([3]; human, in vivo)?
**A.** The value was 13%.

**Q.** What about the “grade 3 or 4 hyponatremia” value ([3]; human, in vivo) of the same substance?
**A.** Its value is 8%.

**Q.** What about the “grade 3 or 4 increased alkaline phosphatase” value ([3]; human, in vivo) of the same substance?
**A.** The value was 8%.

**Q.** And the “grade 3 or 4 neutropenia” value ([3]; human, in vivo)?
**A.** Its value is 34%.

**Q.** And the infusion-related reactions ([3]; human, in vivo)?
**A.** The infusion-related reactions was “No infusion-related reactions were reported”.

**Q.** What about the “patients with dose reduction” value ([3]; human, in vivo) of the same substance?
**A.** The value was 13%.

**Q.** What about the “Overall survival, median” value ([3]; intention-to-treat N = 53) of the same substance?
**A.** Its value is 7.0 months.

**Q.** What about the “Progression-free survival, median” value ([3]; intention-to-treat N = 53) of the same substance?
**A.** The value was 3.6 months.

**Q.** And the “duration of SD, patient with 17% tumor shrinkage” value ([3]; one patient with prior CPI)?
**A.** The value was 8.7 months.

**Q.** And the “duration of SD, patient with no change in tumor size” value ([3]; one patient with prior CPI)?
**A.** Its value is 3.7 months.

**Q.** And the “tumor shrinkage, patient with SD” value ([3]; one patient with prior CPI)?
**A.** The value was 17%.

**Q.** And the “tumor shrinkage on first assessment, patient with unconfirmed PR” value ([3]; one patient with prior checkpoint inhibitor (CPI))?
**A.** Its value is 54%.

**Q.** What about the “Clinical benefit rate (PR + SD >= 4 months), %” value [3, 6] of the same substance?
**A.** The value was “(26%)”.

**Q.** What about the OS median [3, 6] of the same substance?
**A.** The OS median was 6.2 months.

**Q.** What about the PFS median [3, 6] of the same substance?
**A.** Its PFS median is 3.6 months.

**Q.** What about the “Clinical benefit rate (PR + SD >= 4 months), %” value [3, 7] of the same substance?
**A.** The value was “(50%)”.

**Q.** What about the OS median [3, 7] of the same substance?
**A.** Its OS median is 8.3 months.

**Q.** And the PFS median [3, 7]?
**A.** The PFS median was 3.8 months.

**Q.** What about the PR ([3]; second-line setting (3/19)) of the same substance?
**A.** The PR was 16%.

**Q.** What about the “median time to response” value ([3]; seven confirmed PR, range 1.8 to 3.6) of the same substance?
**A.** The value was 2.0 months.

**Q.** And the “confirmed PR” value ([3]; starting dose 8 mg/kg, 13 patients)?
**A.** Its value is 8%.

**Q.** What about the CBR ([3]; starting dose 10 mg/kg (14/30)) of the same substance?
**A.** The CBR was 47%.

**Q.** What about the “confirmed PR” value ([3]; starting dose 10 mg/kg (N = 30)) of the same substance?
**A.** The value was 20%.

**Q.** And the “Kaplan-Meier-derived median duration of SD” value ([3]; ten patients with SD >=4 months, 95% CI 5.2, 9.7)?
**A.** Its value is 5.6 months.

**Q.** And the “confirmed PR” value ([3]; third or higher line (N = 24))?
**A.** Its value is 16%.
